The text below walks through data of patent US4031094A, “N-meta-trifluoromethylpiperazines” (Synthelabo, priority 1972, dated 1977).

For one series, the system named is mice. Briefly: motor activity in mice in the hour following administration. The settings on record: 5 mg/kg, oral. In kind it is in vivo. On the procedure:
2. the motor activity in mice in the hour following administration of the compound under test;
(§1) In every case, the compounds under test were administered orally. The results obtained are given in the table below which also gives the LD 50's (and their 95% confidence limits) of the compounds studied determined intravenously and orally.

Series [1] is described as follows: overall comparison of therapeutic index, activity and toxicity. In kind it is in vivo. The settings on record: compared with compounds II and III. On the procedure: The compounds of formula IA and their salts have interesting pharmacological properties which make them of therapeutic interest.
as §1

Series [2] is described as follows: electric "battle test" (Tedeschi & al). In kind it is in vivo. The settings on record: oral; read-out: Electric Battle Test ED 50. On the procedure:
3. the electric "battle test" (Tedeschi & al, J. Pharmacol., 1959, 125, pages […]); and
as §1

The nature of the next series: LD 50 orally. The settings on record: in vivo; oral; 95% confidence limits in parentheses. As to the method: as §1
The next series relates to rat. Briefly: anorexigenic effects in the rat trained to satisfy its alimentary needs in a period of 5 hours each 24 hours. In kind it is in vivo. The settings on record: oral, read-out: Anorexia ED 50. As to the method:
1. a study of the anorexigenic effects in the rat trained to satisfy its alimentary needs in a period of 5 hours each 24 hours;
as §1

The nature of another series: LD 50 intravenously. The settings on record: in vivo; intravenous; 95% confidence limits in parentheses. As to the method:
as §1

For series [3] the following is noted: known properties of comparison compounds; cited from earlier work.

Structures can show the parent of a compound that is named as a salt.

For the molecule `COC(=O)CCN1CCN(c2cccc(SC(F)(F)F)c2)CC1` [Example 5, N-(β-methoxycarbonyl-ethyl)-N'-(m-trifluoromethylthiophenyl)-piperazine hydrochloride], in “solubility”, the solubility in water entry is reported as “soluble in water”.

Turning to `Cl.N#CCCN1CCN(c2cccc(SC(F)(F)F)c2)CC1` [IA, N-(β-cyano-ethyl)-N'-(m-trifluoromethylthiophenyl)-piperazine hydrochloride], the “Motor Activity” value in the series on mice turned out to be 0%. In series [1], the “activity, overall” value is reported as “higher activity”. Also, in series [1], the therapeutic index entry was “better therapeutic index than compounds II and III”. Also, in series [1], the toxicity entry was “lower toxicity”. Besides, the ED50 was 8 mg/kg in series [2] and 11 mg/kg with rat. Besides, the LD50 (as a rule, the dose expected to kill half of the subjects tested) stood at 335 mg/kg in the series “LD 50 orally” and 180 mg/kg in “LD 50 intravenously”. Besides, in “solubility”, the solubility in water result is on record as “soluble in water”.

Consider `FC(F)(F)Sc1cccc(N2CCNCC2)c1` [III, N-(m-trifluoromethylthiophenyl)-piperazine], for which the “Motor Activity” value in the series on mice is reported as 0%. The known pharmacological properties result in series [3] was “known to possess anorexigenic properties”. For the same molecule, the ED50 (in series [2]; in the series with rat) was 15 mg/kg throughout. In addition, the median lethal dose (LD50) in “LD 50 orally” is 210 mg/kg; in the series “LD 50 intravenously” it was 90 mg/kg. Also, in the series “solubility” (most usual organic solvents), the “solubility in organic solvents” value is “soluble in water and in most usual organic solvents”. The solubility in water result in “solubility” is “soluble in water”.

For the molecule `FC(F)(F)c1cccc(N2CCNCC2)c1` [Compound II, N-(m-trifluoromethylphenyl)-piperazine, reference compound], the known pharmacological properties result in series [3] is “known to possess anorexigenic and anxiolytic properties”. Moreover, the ED50 worked out at 15 mg/kg in series [2] and 25 mg/kg in the series with rat. Moreover, the LD50 in the series “LD 50 orally” turned out to be 200 mg/kg; in the series “LD 50 intravenously”, 80 mg/kg.
